The structures appear in SMILES notation. Entries after “also recorded” stand apart in the source; their conditions may differ.

One assay relates to glomerular genes. Kind of assay: RNA sequencing of glomeruli isolated from PAN-NS rats (glomerular transcriptome). The assay is classed as in vivo, rat. As for the experimental part: (§1) Proteinuria was induced in male Wister rats (body weight[…], age˜45-50 d) by single tail vein injection of Puromycin aminonucleoside (PAN, #P7130, Sigma; St. Louis, Mo.) −50 mg/kg, n=4 on Day 0, while the control group received saline injection (n=4). PAN-induced proteinuria was treated daily with methylprednisolone (15 mg/kg, n=4, Solu-Medrol; Pfizer Inc., New York, N.Y.) via intraperitoneal injection or with pioglitazone (10 mg/kg, Actos; Takeda, Deerfield, Ill.) via oral gavage until day 11 of post PAN-injection. Morning spot urine samples were collected on Day 0 (before PAN injection) and day 11 for urinary protein: creatinine ratio (UPC) analysis. Kidneys were harvested at day 11 and were processed for glomerular isolation.
Glomeruli were isolated using sieving method where kidney cortex was pared using curved scissors into the petri lid with cold PBS, minced well, drained and washed onto pre-moistened No. 80 sieve. Using squeeze bottle, minced kidneys on No. 80 sieve were washed thoroughly and transferred to No. 140 sieve. No. 140 and 200 are stacked together to catch smaller material. Kidney material was then ground through No. 140 sieve with very gentle pressure using bottom of cold round 250 ml beaker. The ground kidney was washed back and forth well over sieve No. 140 onto No. 200. This catch material is the glomeruli. The glomeruli were washed with cold PBS to get rid of any contaminants and the final washed material was collected into labeled 50 ml conical tube. The tube was spun at ˜1500 rpm for 3 min Glomeruli precipitate was then suspended in RLT buffer (Qiagen, Germantown, Md.) containing β-mercaptoethanol (#M6250 Sigma).
Total RNA from the isolated glomeruli was isolated using the RNeasy mini Kit (Qiagen) according to the manufacturer's instructions. The purity and yield of RNA was determined by measuring the absorbance at 230, 260 and 280 nm. Briefly, 1 ug of RNA was subjected to DNase (Ambion, Thermo Fisher Scientific) digestion at 37° C. for 30 min followed by DNase inactivation with 5 mM EDTA at 75° C. for 10 min.
RNA quality was assessed using the Agilent 2100 Bioanalyzer and RNA Nano Chip Kit (Agilent Technologies, CA) to ensure that the RNA Integrity Number (RIN) was ≥7. RNA-seq libraries were then generated using TruSeq Standard total RNA with Ribo-Zero Globin Complete kit (Illumina, CA). Briefly, ribosomal RNA (rRNA) was removed from 350 ng of total RNA with biotinylated, target-specific oligos combined with Ribo-Zero rRNA removal beads from the Human/Mouse/Rat Globin kit. To generate directional signals in RNA seq data, libraries were constructed from first strand cDNA using ScriptSeq™ v2 RNA-Seq library preparation kit (Epicentre Biotechnologies, WI). Briefly, 50 ng of rRNA-depleted RNA was fragmented and reverse transcribed using random primers containing a 5′ tagging sequence, followed by 3′ end tagging with a terminal-tagging oligo to yield di-tagged, single-stranded cDNA. Following purification using a magnetic bead-based approach, the di-tagged cDNA was amplified by limit-cycle PCR using primer pairs that anneal to tagging sequences and add adaptor sequences required for sequencing cluster generation. Amplified RNA-seq libraries were purified using AMPure XP System (Beckman Coulter). The quality of libraries was determined via Agilent 2200 TapeStation using High Sensitivity D1000 tape, and quantified using Kappa SYBR®Fast qPCR kit (KAPA Biosystems, Inc, MA). Approximately, 90-125 million paired-end 150 bp reads were generated per sample using the Illumina HiSeq4000 platform. Raw data were converted to FASTQ using Illumina's bc12fastq application. Sequencing adapters matching at least 6 bases were then removed from the reads, as well as low-quality bases (<10) using v1.10 of cutadapt. […]

Assay [1] deals with human podocyte cell line (MS13). As to the kind of experiment: Real-time PCR of 17 genes-of-interest in PAN-exposed human podocyte cell line. The assay is classed as cell-based. To be noted: PAN 2.5 and 5 μg/ml, 24 h and 48 h. On the procedure: (§2) The conditionally immortalized human podocyte cell line (MS13) and human primary mesangial cells were cultured as previously described. Sharma et al., J Am Soc Nephrol 28, 2618-2630 (2017). 3×10^4 undifferentiated podocytes were plated on a 6-well plate and were incubated at 37° C. for 12-14 days prior to the start of experiment whereas 1×10^5 mesangial cells were plated on a 6-well plate a day prior to start of experiment. Further, podocytes and mesangial cells were serum starved 0/N with 1% FCS containing RPMI media, before the experiment. The following day, podocytes were exposed to 2.5 and 5 μg/ml of PAN for 24 and 48 hrs whereas in case of mesangial cells, 5 μg/ml of PAN (Sigma; St. Louis, Mo.) was added for 24 and 48 hrs. Cells were lysed in 400 μl of RNA lysis buffer provided by Ambion (#AM1560).
(§3) Total RNA from the cultured podocytes and mesangial cells was isolated using the miRVANA miRNA isolation kit (Ambion, ThermoScientific) according to the manufacturer's instructions. The RNA was eluted in 40 μl of nuclease free water. The purity and yield of RNA was determined by measuring the absorbance at 230, 260 and 280 nm. Briefly, 1 μg of RNA was subjected to DNase (Ambion, Thermo Fisher Scientific) digestion at 37° C. for 30 min followed by DNase inactivation with 5 mM EDTA at 75° C. for 10 min.
(§4) […] of total isolated RNA was reverse transcribed to cDNA by iScript cDNA synthesis kit according to manufacturer's instructions (#1708890. Bio-Rad). The resulting cDNA was diluted to 1:5 with nuclease free water. Diluted cDNA was finally used for relative mRNA quantitation of 17 targets-of-interest using SYBER green based Bio-Rad CFX96 Real-Time PCR machine (Bio-Rad Labs, Hercules, Calif.). Both RPL19 and PPIA were used as reference genes.

Assay [2] relates to human primary mesangial cells. Kind of assay: Real-time PCR of 17 genes-of-interest in PAN-exposed human primary mesangial cells. The assay is classed as cell-based. To be noted: PAN 5 μg/ml, 24 h and 48 h. As for the experimental part:
as §2, §3, §4
For orientation: Quantitative PCR measures a nucleic acid by following its amplification.

Assay [3] relates to rats with PAN-induced NS. As to the kind of experiment: PAN-induced nephrotic syndrome rat model, urine protein-to-creatinine ratio. The note with it: for Urine protein to creatinine ratio (UPCR): day 11 after single PAN dose 50 mg/kg IV, MP 15 mg/kg i.p. daily, Pio 10 mg/kg oral gavage daily, n=4 rats per group. The assay is classed as in vivo. As for the experimental part: as §1
UPC was measured by Antech Diagnostics (Morrisville, N.C.) using standard techniques that are fully compliant with Good Laboratory practice regulations. See Agrawal et al., Sci Rep 6, 24392 (2016)

For assay [4], the system named is rats with PAN-induced NS. The note with it: earlier study, Agrawal et al., Sci Rep 6, 24392 (2016); cited from earlier work.
Setting [5] is: PAN-NS glomeruli, day 11, FDR<0.05, of 1,872 DEGs.
[6] abbreviates: overlap analysis, common to both treatments.

With `CN(C)c1ncnc2c1ncn2[C@@H]1O[C@H](CO)[C@@H](N)[C@H]1O` [PAN, Puromycin aminonucleoside], in the assay with glomerular genes (setting [5]), the “number of glomerular genes significantly downregulated compared to healthy controls” value is reported as 858 and the “number of glomerular genes significantly upregulated compared to healthy controls” value is on record as 1,014. In assay [1], the “CPT1B, PDK4, ANGPTL4, TAGLN and CDKN1A mRNA expression” value is recorded as “significant increase in expression”; the “SERPINE1, MMP14, CCL2, LIF, BIRC5 mRNA expression” value is “did not follow the expected pattern”. For the same compound, the “LGALS3 mRNA expression” value in assay [1] (P=0.0003 vs. controls) was “induction of expression; also recorded: exclusively enhanced”. In assay [2], the “CPT1B, PDK4, ANGPTL4, TAGLN and CDKN1A mRNA expression” value is on record as “significant increase in expression”; the “SERPINE1, MMP14, CCL2, LIF, BIRC5 mRNA expression” value is “did not follow the expected pattern”. In addition, the “MMP2 mRNA expression” value in assay [2] (P=0.007 vs. controls) was “induced; also recorded: markedly upregulated”. Further, the “ACTA2 mRNA expression” value in assay [2] (P=0.045 vs. controls) is “induced; also recorded: markedly upregulated”. For the same compound, in the assay on rats with PAN-induced NS [3], the “Urine protein to creatinine ratio (UPCR)” value was determined as 57.2 ± 41.6 mg/mg.

For the compound `CCc1ccc(CCOc2ccc(CC3SC(=O)NC3=O)cc2)nc1` (stereo not shown) [Pio, pioglitazone], in the assay on glomerular genes (42 endothelial genes), the “effect on transcriptional profiles of endothelial cell-specific genes” value is listed as “neither MP nor Pio treatment had notable effects”. Moreover, the “PAN-induced gene expression alterations in podocyte- and mesangial cell-specific gene clusters” value in the assay with glomerular genes (66 podocyte and 43 mesangial genes, PCA plots) is “substantially reversed”. Also, in the assay with glomerular genes (FDR<0.05 vs PAN), the “number of the 858 glomerular genes downregulated in PAN-NS significantly ameliorated” value is reported as 144, the “number of the 1,014 glomerular genes upregulated in PAN-NS significantly ameliorated” value was determined as 346, the “share of the 858 glomerular genes downregulated in PAN-NS significantly ameliorated” value is reported as 17% and the “share of the 1,014 glomerular genes upregulated in PAN-NS significantly ameliorated” value was 34%. For the same compound, the “PAN-induced dysregulation of glomerular gene sets associated with extracellular matrix and cyclins (GSEA)” value in the assay on glomerular genes (GSEA, FDR<0.05) was “significantly ameliorated”. Also, in the assay on glomerular genes (setting [6]), the “number of DEGs significantly induced by PAN but ameliorated by both MP and Pio” value was 319; the “number of DEGs significantly suppressed by PAN but ameliorated by both MP and Pio” value is 126. In the assay with rats with PAN-induced NS [4], the “proteinuria in PAN-induced rat model of NS, previously reported” value is “significantly reduced proteinuria; also recorded: significant proteinuria reduction”. In addition, the “reduction of proteinuria (UPCR) vs PAN” value in the assay with rats with PAN-induced NS [3] (day 11, PAN+MP or PAN+Pio vs PAN) was determined as 94%. Also, in the assay with rats with PAN-induced NS [3], the “Urine protein to creatinine ratio (UPCR)” value stood at 3.45 ± 0.82 mg/mg.

The record behind these values is patent US20230257817A1, “IDENTIFICATION OF GENOME REGIONS ASSOCIATED WITH KIDNEY DISEASE AND TREATMENT” (THE RESEARCH INSTITUTE AT NATIONWIDE CHILDREN'S HOSPITAL, priority 2020, published 2023).
